The text below walks through data of patent US8133847B2, “Pyrido[2,3-B]pyrazine derivatives useful as herbicidal compounds” (Syngenta Limited, priority 2006, dated 2012).

Assay type in all cases: in vivo
Assay [1] deals with test plants (a variety of test species). Description: Example B2 herbicidal action, post-emergence, pots in glasshouse. The conditions noted are these: evaluated after 13 days, 100=total damage to plant, 0=no damage to plant. The method, then:
(§1) Seeds of a variety of test species were sown in standard soil in pots. After 8 days cultivation (post-emergence) under controlled conditions in a glasshouse (at 24/16° C., day/night; 14 hours light; 65% humidity), the plants were sprayed with an aqueous spray solution derived from the formulation of the technical active ingredient in acetone/water (50:50) solution containing 0.5% Tween 20 (polyoxyethylene sorbitan monolaurate, CAS RN 9005-64-5). The test plants were then grown in a glasshouse under controlled conditions in a glasshouse (at 24/16° C., day/night; 14 hours light; 65% humidity) and watered twice daily. After 13 days, the test was evaluated (100=total damage to plant; 0=no damage to plant).

Assay [2] concerns Amaranthus retroflexus (AMARE). As to the kind of experiment: Example B3 herbicidal action, post-emergence. To be noted: 1000 g/ha, after 13 days, 100=total damage to plant, 0=no damage to plant. The method, then: (§2) Seeds of a variety of test species were sown in sterilised compost in small pots. After cultivation for seven days (post-emergence) in controlled conditions in the glasshouse (at 24/16° C., day/night; 14 hours light; 65% humidity) the plants were sprayed with 1 mg of the active ingredient, formulated in 2.5 ml acetone/water (50:50) solution, which is equivalent to 1000 g/ha. Once the foliage was dry, the pots were kept in the glasshouse (at 24/16° C., day/night; 14 hours light; 65% humidity), and were watered twice daily. After 13 days the test was evaluated (100=total damage to plant, 0=no damage to plant).

The test system of assay [3] is Alopecurus myosuroides (ALOMY). Description: Example B3 herbicidal action, post-emergence. To be noted: 1000 g/ha, after 13 days, 100=total damage to plant, 0=no damage to plant. The method, then:
as §2

Assay [4] relates to Chenopodium album (CHEAL). Description: Example B3 herbicidal action, post-emergence. The conditions noted are these: 1000 g/ha, after 13 days, 100=total damage to plant, 0=no damage to plant. The method, then:
as §2

Assay [5] relates to Digitaria sanguinalis (DIGSA). As to the kind of experiment: Example B3 herbicidal action, post-emergence. To be noted: 1000 g/ha, after 13 days, 100=total damage to plant, 0=no damage to plant. How it is done: as §2
The test system of assay [6] is Amaranthus retroflexus (AMARE). As to the kind of experiment: Example B2 herbicidal action, post-emergence, pots in glasshouse. To be noted: Application post-emergence, evaluated after 13 days (100=total damage to plant; 0=no damage to plant). The method, then:
as §1

The next assay concerns Setaria faberi (SETFA). The description is as above. To be noted: Application post-emergence, evaluated after 13 days (100=total damage to plant; 0=no damage to plant). The method, then: as §1
In another assay the test system is Solanum nigrum (SOLNI). The description is as above. To be noted: Application post-emergence, evaluated after 13 days. How it is done: as §1
Assay [7] deals with Ipomea hederaceae (IPOHE). Described as above. The conditions noted are these: Application post-emergence, evaluated after 13 days (100=total damage to plant; 0=no damage to plant). How it is done:
as §1

For assay [8], the system named is Echinochloa crusgalli (ECHCG). Described as above. The conditions noted are these: Application post-emergence, evaluated after 13 days (100=total damage to plant; 0=no damage to plant). The method, then:
as §1

For `O=c1[nH]c2nccnc2c(O)c1-c1ccccc1` [Compound A22], in [1], the “damage to the test plants” value was “no damage”.
As for `COc1cccc(-c2c(O)c3nccnc3[nH]c2=O)c1OC` [Compound A41], in [2], the “damage to plant, Amaranthus retroflexus (AMARE)” value (from here on “damage to plant … (AMARE)”) is recorded as 0. Besides, the “damage to plant, Alopecurus myosuroides (ALOMY)” value (“damage to plant … (ALOMY)” for short) in assay [3] came out at 3. Also, in assay [4], the “damage to plant, Chenopodium album (CHEAL)” value (“damage to plant … (CHEAL)” below) is listed as 6. Further, the “damage to plant, Digitaria sanguinalis (DIGSA)” value (shortened to “damage to plant … (DIGSA)”) in assay [5] was 6.
As to `O=c1[nH]c2nccnc2c(O)c1-c1ccc(C(F)(F)F)cc1Br` [Compound A43], the “damage to plant … (AMARE)” value in assay [2] turned out to be 7. Besides, the “damage to plant … (ALOMY)” value in [3] was 0. For the same molecule, the “damage to plant … (CHEAL)” value in assay [4] amounted to 8. In assay [5], the “damage to plant … (DIGSA)” value is 0.
As for `CC(C)(C)C(=O)Oc1c(-c2cc(F)c(Cl)cc2Cl)c(=O)[nH]c2nccnc12` [Compound B48], the “damage to the test plants” value in assay [1] was “no damage”.
For `CC(C)(C)C(=O)Oc1c(-c2ccc(C(F)(F)F)cc2Br)c(=O)[nH]c2nccnc12` [Compound B54], in assay [2], the “damage to plant … (AMARE)” value was found to be 3. Also, the “damage to plant … (ALOMY)” value in assay [3] worked out at 0. For the same molecule, in assay [4], the “damage to plant … (CHEAL)” value came out at 8. In addition, the “damage to plant … (DIGSA)” value in [5] was found to be 0.
For the molecule `CC(=O)Oc1c(-c2ccc(Cl)cc2Cl)c(=O)n(C(C)C)c2nccnc12` [Compound C7], in assay [2], the “damage to plant … (AMARE)” value turned out to be 9. Besides, the “damage to plant … (ALOMY)” value in assay [3] worked out at 0. For the same molecule, the “damage to plant … (CHEAL)” value in [4] worked out at 7. The “damage to plant … (DIGSA)” value in assay [5] is given as 3.
The like results for `CCn1c(=O)c(-c2c(Cl)ccc(Cl)c2Cl)c(OC(=O)C(C)C)c2nccnc21` [Compound C107] were, in that order, 10, 0, 10 and 2.
The like results for `CCn1c(=O)c(-c2cccc(C(F)(F)F)c2Cl)c(OC(=O)C(C)(C)C)c2nccnc21` [Compound C132] were, in that order, 10, 0, 8 and 0.
Turning to `Cn1c(=O)c(-c2ccccc2)c(OC(=O)C(C)(C)C)c2nccnc21` [Compound C137], the “damage to plant … (AMARE)” value in assay [6] stood at 9. In the assay on Setaria faberi (SETFA), the “damage to plant, Setaria faberi (SETFA)” value was 0. Also, the “damage to plant, Solanum nigrum (SOLNI)” value with Solanum nigrum (SOLNI) came out at 0. The “damage to plant, Ipomea hederaceae (IPOHE)” value (“damage to plant … (IPOHE)” for short) in [7] is listed as 5. For the same molecule, the “damage to plant, Echinochloa crusgalli (ECHCG)” value (“damage to plant … (ECHCG)” below) in assay [8] turned out to be 0. Besides, in [1], the “damage to the test plants” value was “no damage”.
Turning to `CCn1c(=O)c(-c2ccc(C(F)(F)F)cc2[N+](=O)[O-])c(OC(=O)C(C)(C)C)c2nccnc21` [Compound C141], the “damage to plant … (AMARE)” value in assay [2] stood at 10. Further, the “damage to plant … (ALOMY)” value in [3] stood at 0. In addition, the “damage to plant … (CHEAL)” value in [4] was 7. The “damage to plant … (DIGSA)” value in assay [5] stood at 0.
On to `CCn1c(=O)c(-c2cc(-c3ccc(Cl)cc3)ccc2C)c(OC(=O)C(C)C)c2nccnc21` [Compound C156], for which the “damage to plant … (AMARE)” value in [2] was 0. For the same molecule, in [3], the “damage to plant … (ALOMY)” value was determined as 8. Further, in assay [4], the “damage to plant … (CHEAL)” value came out at 0. Also, in assay [5], the “damage to plant … (DIGSA)” value is reported as 3.
With `Cn1c(=O)c(-c2c(F)c([N+](=O)[O-])cc(F)c2Cl)c(OC(=O)C(C)(C)C)c2nccnc21` [Compound C157], in assay [2], the “damage to plant … (AMARE)” value came out at 6. Besides, the “damage to plant … (ALOMY)” value in [3] is 0. Also, the “damage to plant … (CHEAL)” value in assay [4] amounted to 8. In addition, the “damage to plant … (DIGSA)” value in [5] is 0.
As to `CCn1c(=O)c(-c2c(F)c([N+](=O)[O-])cc(F)c2Cl)c(OC(=O)C(C)(C)C)c2nccnc21` [Compound C158], in assay [2], the “damage to plant … (AMARE)” value is 9. Moreover, the “damage to plant … (ALOMY)” value in assay [3] was determined as 0. Also, the “damage to plant … (CHEAL)” value in [4] worked out at 10. The “damage to plant … (DIGSA)” value in assay [5] is recorded as 0.
For `Cc1cccc([N+](=O)[O-])c1-c1c(OC(=O)C(C)(C)C)c2nccnc2n(C)c1=O` [Compound C161], the “damage to plant … (AMARE)” value in [2] is 6. The “damage to plant … (ALOMY)” value in assay [3] stood at 0. Besides, the “damage to plant … (CHEAL)” value in [4] worked out at 2. Moreover, in assay [5], the “damage to plant … (DIGSA)” value was 5.
Turning to `CCn1c(=O)c(-c2cc(OC(F)(F)F)ccc2OC)c(OC(=O)C(C)(C)C)c2nccnc21` [Compound C167], in assay [6], the “damage to plant … (AMARE)” value came out at 10. In addition, the “damage to plant, Setaria faberi (SETFA)” value in the assay with Setaria faberi (SETFA) turned out to be 2. In addition, in the assay on Solanum nigrum (SOLNI), the “damage to plant, Solanum nigrum (SOLNI)” value came out at 9. The “damage to plant … (IPOHE)” value in assay [7] is recorded as 5. For the same molecule, the “damage to plant … (ECHCG)” value in assay [8] is listed as 5.
Turning to `Cn1c(=O)c(-c2ccccc2OC(F)F)c(OC(=O)C(C)(C)C)c2nccnc21` [Compound C168], the “damage to plant … (AMARE)” value in assay [6] was determined as 10. In the assay on Setaria faberi (SETFA), the “damage to plant, Setaria faberi (SETFA)” value was determined as 2. Moreover, the “damage to plant, Solanum nigrum (SOLNI)” value in the assay with Solanum nigrum (SOLNI) came out at 8. The “damage to plant … (IPOHE)” value in assay [7] stood at 5. In [8], the “damage to plant … (ECHCG)” value turned out to be 3.
The like results for `CCn1c(=O)c(-c2ccccc2OC(F)F)c(OC(=O)C(C)(C)C)c2nccnc21` [Compound C169] were, in that order, 9, 0, 9, 7 and 0.
The like results for `Cc1cnc2c(OC(=O)C(C)(C)C)c(-c3c(F)ccc(F)c3Cl)c(=O)n(C)c2n1` [Compound C170] were, in that order, 8, 7, 6, 4 and 8.
Consider `Cc1cc(C)c(-c2c(O)c3nccnc3n(C)c2=O)c(C)c1` [Compound D7], for which the “damage to plant … (AMARE)” value in [6] is reported as 10. The “damage to plant, Setaria faberi (SETFA)” value in the assay with Setaria faberi (SETFA) was 10. The “damage to plant, Solanum nigrum (SOLNI)” value with Solanum nigrum (SOLNI) is reported as 10. In addition, the “damage to plant … (IPOHE)” value in assay [7] is listed as 9. Also, the “damage to plant … (ECHCG)” value in assay [8] was 10.
With `CCn1c(=O)c(-c2c(Cl)cc(OC(F)(F)F)cc2Cl)c(O)c2nccnc21` [Compound D11], the “damage to plant … (AMARE)” value in assay [6] amounted to 10. In the assay with Setaria faberi (SETFA), the “damage to plant, Setaria faberi (SETFA)” value turned out to be 9. In addition, the “damage to plant, Solanum nigrum (SOLNI)” value in the assay with Solanum nigrum (SOLNI) was 10. Besides, the “damage to plant … (IPOHE)” value in [7] was 10. For the same molecule, in assay [8], the “damage to plant … (ECHCG)” value is 10.
